Test results published in paper PMC5655360, “Establishment of a novel hepatocyte model that expresses four cytochrome P450 genes stably via mammalian-derived artificial chromosome for pharmacokinetics and toxicity studies” (PLoS ONE, 2017).
Like-named read-outs stand apart in the source and are kept apart here.

Legend:
[1] = molecular target: T1, CYP2D6 (Homo sapiens, UniProt P10635); assay: cell-based
Procedure: (§1) Measurement of the activity of all four CYPs was conducted using the P450-Glo™ assay (Promega, Japan), according to the manufacturer’s instructions. Briefly, cells were seeded in a 96-well plate at a density of 1×10^4 cells/well. Twenty-four hours later, test compounds and the luminescent substrate included in the kit were added into the culture media. Following 1 hour of incubation, the detection reagent was added, and the luminescence generated by the metabolic substrate within the culture media was measured using an Infinite F500 plate reader ([…]).
(§2) Curve fitting was performed using the SigmaPlot 13.0 statistical software (Systat Software, IL, USA). […] Data were presented as means ± S.D. Statistical analyses were carried out using unpaired Student’s t test. The level of statistical significance was set at P< 0.05.
(§3) Twenty compounds that are known to inhibit CYPs were used to calculate IC50 values in TC-HepG2 cells, which were then compared to those in primary human hepatocytes.
(§4) Briefly, CYP inhibitors were added to the culture media at the same time as the metabolic substrate to test direct inhibition (DI) or 1 hour prior to the addition of the metabolic substrate to test time-dependent inhibition (TDI).

[2] = molecular target: T1, CYP2D6; assay: cell-based; type: in vitro ADME; set-up: endogenous in cells; host or cells: primary human hepatocytes; settings: primary human hepatocytes; mean ± S.D. of triplicate
[3] = molecular target: T2, CYP3A4 (Homo sapiens, UniProt P08684)
Procedure: as §1, §2, §3, §4
Target sequence in this assay (P08684 2-503): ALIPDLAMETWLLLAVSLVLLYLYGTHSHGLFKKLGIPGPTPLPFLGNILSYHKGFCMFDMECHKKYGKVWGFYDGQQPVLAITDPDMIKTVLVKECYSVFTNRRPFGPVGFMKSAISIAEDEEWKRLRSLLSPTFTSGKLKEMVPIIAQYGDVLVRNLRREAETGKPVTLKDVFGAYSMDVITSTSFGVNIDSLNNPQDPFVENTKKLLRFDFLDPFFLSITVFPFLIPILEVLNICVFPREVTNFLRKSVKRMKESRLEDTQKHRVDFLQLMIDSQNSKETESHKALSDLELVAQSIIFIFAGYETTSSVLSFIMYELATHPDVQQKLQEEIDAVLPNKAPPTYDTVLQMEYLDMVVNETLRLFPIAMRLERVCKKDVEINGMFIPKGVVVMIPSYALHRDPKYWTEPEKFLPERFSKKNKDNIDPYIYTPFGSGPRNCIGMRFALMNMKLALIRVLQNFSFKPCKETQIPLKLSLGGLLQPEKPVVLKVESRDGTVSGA

[4] = molecular target: T2, CYP3A4; assay: in vitro
Procedure: as §1
Fig 6G–6I show the plots to determine the rate of inactivation (kobs) for the three inhibitors as depicted in Fig 6A–6F.
Macrolides (0–100 μM/L) were preincubated at 37°C for 0–30 min, and the reaction was initiated by the addition of CYP3A-specific substrate for 30 min. (G—I) Apparent inactivation rate (kobs) was estimated graphically from the slope of the plot for the natural log enzyme activity remaining after preincubation against preincubation time and was corrected for any loss of activity in the absence of the inhibitor. kinact and Ki,app values were obtained from a double reciprocal plot of kobs against inhibitor concentration. Closed circles represent TC-HepG2 cells, and opened circles represent parental HepG2 cells. Each symbol represents the average of triplicate determinations.

[5] = system: HepG2 cells
[6] = system: TC-HepG2 cells
[7] = molecular target: T3, CYP2C19 (Homo sapiens, UniProt P33261); assay: cell-based; type: in vitro ADME; set-up: endogenous in cells; host or cells: primary human hepatocytes; settings: primary human hepatocytes; mean ± S.D. of triplicate
[8] = molecular target: CYP2C9 (Homo sapiens, UniProt P11712); settings: TC-HepG2 cells, Fig 5
Procedure: as §1, §2, §3, §4

[9] = molecular target: T3, CYP2C19; assay: cell-based
Procedure: as §1, §2, §3, §4

T1 sequence (P10635 whole entry): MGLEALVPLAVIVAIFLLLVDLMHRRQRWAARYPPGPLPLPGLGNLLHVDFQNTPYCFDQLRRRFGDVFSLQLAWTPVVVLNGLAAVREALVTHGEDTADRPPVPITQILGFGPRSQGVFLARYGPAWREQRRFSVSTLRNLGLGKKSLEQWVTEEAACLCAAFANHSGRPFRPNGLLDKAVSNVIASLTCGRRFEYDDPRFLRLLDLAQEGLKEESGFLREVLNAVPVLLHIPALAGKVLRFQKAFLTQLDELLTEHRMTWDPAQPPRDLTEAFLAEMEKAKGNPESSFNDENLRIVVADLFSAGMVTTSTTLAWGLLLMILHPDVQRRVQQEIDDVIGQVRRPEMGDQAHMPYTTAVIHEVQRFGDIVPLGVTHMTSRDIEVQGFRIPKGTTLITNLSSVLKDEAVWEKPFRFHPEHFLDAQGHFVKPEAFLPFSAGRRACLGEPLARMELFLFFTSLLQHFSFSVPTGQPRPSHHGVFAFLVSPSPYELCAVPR
T3 sequence (P33261 whole entry): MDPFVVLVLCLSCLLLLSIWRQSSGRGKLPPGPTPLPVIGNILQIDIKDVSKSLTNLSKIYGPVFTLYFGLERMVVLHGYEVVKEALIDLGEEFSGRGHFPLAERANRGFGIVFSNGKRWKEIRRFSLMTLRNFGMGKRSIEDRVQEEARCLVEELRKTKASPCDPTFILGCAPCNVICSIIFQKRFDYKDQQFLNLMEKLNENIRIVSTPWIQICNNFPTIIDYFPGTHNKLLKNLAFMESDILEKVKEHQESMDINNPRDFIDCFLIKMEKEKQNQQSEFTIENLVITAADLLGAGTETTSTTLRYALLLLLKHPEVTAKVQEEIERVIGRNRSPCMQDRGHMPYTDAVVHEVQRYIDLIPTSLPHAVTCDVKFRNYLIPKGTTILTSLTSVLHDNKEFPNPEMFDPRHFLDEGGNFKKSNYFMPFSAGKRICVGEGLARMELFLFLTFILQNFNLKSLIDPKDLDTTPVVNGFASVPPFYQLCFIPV
CYP2C9, sequence (P11712 whole entry): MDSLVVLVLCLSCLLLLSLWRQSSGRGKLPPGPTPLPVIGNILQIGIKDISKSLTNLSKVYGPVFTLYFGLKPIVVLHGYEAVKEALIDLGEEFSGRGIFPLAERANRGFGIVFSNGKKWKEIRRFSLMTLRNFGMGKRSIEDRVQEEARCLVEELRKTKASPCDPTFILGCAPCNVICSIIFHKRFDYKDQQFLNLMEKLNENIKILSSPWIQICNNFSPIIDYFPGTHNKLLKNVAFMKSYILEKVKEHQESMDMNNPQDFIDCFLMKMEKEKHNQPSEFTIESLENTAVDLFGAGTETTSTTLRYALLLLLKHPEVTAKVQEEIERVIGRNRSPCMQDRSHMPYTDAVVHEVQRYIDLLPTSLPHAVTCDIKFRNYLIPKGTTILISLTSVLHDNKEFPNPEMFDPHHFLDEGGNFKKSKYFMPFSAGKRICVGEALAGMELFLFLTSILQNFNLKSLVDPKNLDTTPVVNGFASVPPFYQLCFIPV

CN(C/C=C/C#CC(C)(C)C)Cc1cccc2ccccc12 [Terbinafine]
IC50 [1]: 0.0021 ± 0.0002 µM | IC50 [2]: 0.0099 ± 0.0002 µM

Fc1ccc([C@@H]2CCNC[C@H]2COc2ccc3c(c2)OCO3)cc1 [Paroxetine]
inhibitory effect with 1 hour preincubation (TDI) compared with simultaneous addition of inhibitor and substrate (DI), CYP2D6 [1]: higher

CC[C@H]1OC(=O)[C@H](C)[C@@H](O[C@H]2C[C@@](C)(OC)[C@@H](O)[C@H](C)O2)[C@H](C)[C@@H](O[C@@H]2O[C@H](C)C[C@H](N(C)C)[C@H]2O)[C@](C)(OC)C[C@@H](C)C(=O)[C@H](C)[C@@H](O)[C@]1(C)O [Clarithromycin]
inhibitory effect with 1 hour preincubation (TDI) compared with simultaneous addition of inhibitor and substrate (DI), CYP3A4 ([3]; TC-HepG2 cells, Fig 5): higher | inhibitory effect on CYP3A4 metabolic activity ([3]; three TC-HepG2 clones (Fig 3C)): concentration-dependent inhibitory effect | suppression of the generation of metabolites of the luminescent CYP3A4 substrate ([4]; 0-100 μM added 10, 20 or 30 min before substrate (Fig 6)): time- and concentration-dependent manner | KI (inactivation) ([4]; hepatocytes): 16 ± 4.3 µM | KI (inactivation) ([4]; human): 3.76 ± 0.42 µM

aflatoxin B1
toxicity in parental HepG2 cells lacking CYPs [5]: neither compound was toxic | IC50 in TC-HepG2 cells compared with HepG2 cells [6]: lower

COc1cc2c(c3oc4cccc(O)c4c(=O)c13)[C@@H]1C=CO[C@@H]1O2 [sterigmatocystin]
toxicity in parental HepG2 cells lacking CYPs [5]: neither compound was toxic | cell survival rate in TC-HepG2 cells compared with parental HepG2 cells [6]: significantly lower | survival of TC-HepG2 cells [6]: concentration-dependent decrease

CC[C@H]1OC(=O)[C@H](C)[C@@H](O[C@H]2C[C@@](C)(OC)[C@@H](O)[C@H](C)O2)[C@H](C)[C@@H](O[C@@H]2O[C@H](C)C[C@H](N(C)C)[C@H]2O)[C@](C)(O)C[C@@H](C)/C(=N\OCOCCOC)[C@H](C)[C@@H](O)[C@]1(C)O [Roxithromycin]
inhibitory effect with 1 hour preincubation (TDI) compared with simultaneous addition of inhibitor and substrate (DI), CYP3A4 [3]: higher | suppression of the generation of metabolites of the luminescent CYP3A4 substrate [4]: time- and concentration-dependent manner | KI (inactivation) ([4]; hepatocytes): 13.1 ± 4.7 µM | kinact ([4]; hepatocytes): 0.000161 s⁻¹ | KI (inactivation) ([4]; human): 4.6 ± 0.6 µM | kinact ([4]; human): 0.000431 s⁻¹

O=C(O)COc1ccc(C(=O)c2cccs2)c(Cl)c1Cl [Tienilic acid]
IC50 [7]: 0.55 ± 0.02 µM | inhibitory effect with 1 hour preincubation (TDI) compared with simultaneous addition of inhibitor and substrate (DI), CYP2C9 [8]: higher | IC50 [9]: 5.7 ± 1.7 µM

C#C[C@]1(O)CC[C@H]2[C@@H]3CCc4cc(O)ccc4[C@H]3CC[C@@]21C [Ethinylestradiol]
inhibitory effect with 1 hour preincubation (TDI) compared with simultaneous addition of inhibitor and substrate (DI), CYP3A4 ([3]; TC-HepG2 cells, Fig 5): higher
